Experimental data as given in patent US12599136B2, “Substituted isophthalic acid diamides and their use as herbicides” (Bayer Aktiengesellschaft, priority 2020, dated 2026).

Experiments:
Assay type in all cases: in vivo
[1] = tested on: Abutilon theophrasti; experiment: Pre-emergence herbicidal action against ABUTH; settings: visual score after 3 weeks vs untreated controls
Procedure, shortened: (§1)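 Herbicidal effect was assessed 3 weeks after treatment by visual comparison with untreated controls, 100% denoting dead plants. Aqueous WP or EC preparations had been applied at 600 to 800 l/ha with 0.2% wetting agent to the soil covering freshly sown seeds.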

[2] = tested on: Alopecurus myosuroides; experiment: Pre-emergence herbicidal action against ALOMY; settings: 80 g/ha; visual score after 3 weeks vs untreated controls
Procedure, shortened: as §1

[3] = tested on: Amaranthus retroflexus; experiment: Pre-emergence herbicidal action against AMARE; settings: visual score after 3 weeks vs untreated controls
Procedure, shortened: as §1

[4] = tested on: Avena fatua; experiment: Pre-emergence herbicidal action against AVEFA; settings: 80 g/ha; visual score after 3 weeks vs untreated controls
Procedure, shortened: as §1

[5] = tested on: Echinochloa crus-galli; experiment: Pre-emergence herbicidal action against ECHCG; settings: 80 g/ha; visual score after 3 weeks vs untreated controls
Procedure, shortened: as §1

[6] = tested on: Matricaria inodora; experiment: Pre-emergence herbicidal action against MATIN; settings: visual score after 3 weeks vs untreated controls
Procedure, shortened: as §1

[7] = tested on: Pharbitis purpurea; experiment: Pre-emergence herbicidal action against PHBPU; settings: 80 g/ha; visual score after 3 weeks vs untreated controls
Source text: Seeds of monocotyledonous and dicotyledonous weed plants and crop plants are laid out in sandy loam soil in wood-fiber pots and covered with soil. The compounds of the invention, formulated in the form of wettable powders (WP) or as emulsion concentrates (EC), are then applied to the surface of the covering soil in the form of an aqueous suspension or emulsion at a water application rate equivalent to 600 to 800 l/ha, with addition of 0.2% wetting agent. After the treatment, the pots are placed in a greenhouse and kept under good growth conditions for the trial plants. The damage to the test plants is scored visually after a test period of 3 weeks by comparison with untreated controls (herbicidal activity in percent (%): 100% activity=the plants have died, 0% activity=like control plants). […] The tables below illustrate, in an illustrative manner, the post-emergence herbicidal action of the compounds of the invention, the herbicidal activity being stated in percent.

[8] = tested on: Digitaria sanguinalis; experiment: Pre-emergence herbicidal action against DIGSA
Procedure, shortened: as §1

[9] = tested on: Polygonum convolvulus; experiment: Pre-emergence herbicidal action against POLCO; settings: 80 g/ha
Procedure, shortened: as §1

[10] = tested on: Setaria viridis; experiment: Pre-emergence herbicidal action against SETVI
Procedure, shortened: as §1

[11] = tested on: Veronica persica; experiment: Pre-emergence herbicidal action against VERPE; settings: 80 g/ha
Procedure, shortened: as §1

[12] = tested on: Viola tricolor; experiment: Pre-emergence herbicidal action against VIOTR
Procedure, shortened: as §1

[13] = tested on: Abutilon theophrasti; experiment: Post-emergence herbicidal action against ABUTH
Procedure, shortened: (§2)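 Herbicidal effect was scored visually in percent after about 3 weeks in the greenhouse. Plants had been raised in sandy loam and treated post-emergence at the one-leaf stage with formulated compound at 600 to 800 l/ha water plus 0.2% wetting agent.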

[14] = tested on: Avena fatua; experiment: Post-emergence herbicidal action against AVEFA; settings: 20 g/ha, visual assessment about 3 weeks after treatment
Procedure, shortened: as §2

[15] = tested on: Echinochloa crus-galli; experiment: Post-emergence herbicidal action against ECHCG; settings: 20 g/ha, visual assessment about 3 weeks after treatment
Procedure, shortened: as §2

[16] = tested on: Matricaria inodora; experiment: Post-emergence herbicidal action against MATIN; settings: visual assessment about 3 weeks after treatment
Procedure, shortened: as §2

[17] = tested on: Pharbitis purpurea; experiment: Post-emergence herbicidal action against PHBPU; settings: visual assessment about 3 weeks after treatment
Procedure, shortened: as §2

[18] = tested on: Setaria viridis; experiment: Post-emergence herbicidal action against SETVI; settings: 20 g/ha, visual assessment about 3 weeks after treatment
Procedure, shortened: as §2

[19] = tested on: Veronica persica; experiment: Post-emergence herbicidal action against VERPE; settings: 20 g/ha, visual assessment about 3 weeks after treatment
Procedure, shortened: as §2

[20] = tested on: Alopecurus myosuroides; experiment: Post-emergence herbicidal action against ALOMY
Procedure, shortened: as §2

[21] = tested on: Amaranthus retroflexus; experiment: Post-emergence herbicidal action against AMARE; settings: visual assessment about 3 weeks after treatment
Procedure, shortened: as §2

[22] = tested on: Viola tricolor; experiment: Post-emergence herbicidal action against VIOTR
Procedure, shortened: as §2

Row | SMILES | Pre-emergence action against ABUTH ([1]; 80 g/ha) [%] | Pre-emergence action against ALOMY [2] [%] | Pre-emergence action against AMARE ([3]; 20 g/ha) [%] | Pre-emergence action against AMARE ([3]; 80 g/ha) [%] | Pre-emergence action against ECHCG [5] [%] | Pre-emergence action against MATIN ([6]; 20 g/ha) [%] | Pre-emergence action against MATIN ([6]; 80 g/ha) [%] | Pre-emergence action against PHBPU [7] [%] | Pre-emergence action against DIGSA ([8]; 20 g/ha) [%] | Pre-emergence action against DIGSA ([8]; 80 g/ha) [%] | Pre-emergence action against POLCO [9] [%] | Pre-emergence action against SETVI ([10]; 80 g/ha) [%] | Pre-emergence action against VIOTR ([12]; 20 g/ha) [%] | Pre-emergence action against VIOTR ([12]; 80 g/ha) [%] | Post-emergence action against ABUTH ([13]; 5 g/ha) [%] | Post-emergence action against ABUTH ([13]; 20 g/ha) [%] | Post-emergence action against ECHCG in % [15] [%] | Post-emergence action against MATIN in % ([16]; 20 g/ha) [%] | Post-emergence action against PHBPU in % ([17]; 20 g/ha) [%] | Post-emergence action against SETVI in % [18] [%] | further results
1 | CCn1nnnc1NC(=O)c1ccc(C(F)(F)F)c(C(=O)N(C)CC(F)F)c1Cl [Example 2-128] | 100 | 100 | 100 | 100 | 90 | 100 | 100 | 80 | 90 | 100 | 100 | 100 | 100 | 100 | 80 | 80 | 80 | 90 | 80 | 80 | Pre-emergence action against AVEFA [4]: 100%; Pre-emergence action against VERPE [11]: 100%; Post-emergence action against AVEFA in % [14]: 80%; Post-emergence action against MATIN in % ([16]; 5 g/ha): 80%; Post-emergence action against PHBPU in % ([17]; 5 g/ha): 80%; Post-emergence action against VERPE in % [19]: 80%
2 | CCN(C(=O)c1c(C(F)(F)F)ccc(C(=O)Nc2nnnn2C)c1Cl)C1CC1 [Example 1-136] | 100 | 100 | 90 | 100 | 90 | 90 | 100 | 90 | 90 | 100 | 80 | 100 | 100 | 100 | 90 | 100 | 90 | 90 | 80 | 100 | Pre-emergence action against ABUTH ([1]; 20 g/ha): 90%; Pre-emergence action against SETVI ([10]; 20 g/ha): 90%; Post-emergence action against ALOMY ([20]; 5 g/ha): 80%; Post-emergence action against ALOMY ([20]; 20 g/ha): 90%; Post-emergence action against AMARE in % ([21]; 5 g/ha): 100%; Post-emergence action against AMARE in % ([21]; 20 g/ha): 100%; Post-emergence action against VERPE in % [19]: 80%; Post-emergence action against VIOTR in % ([22]; 5 g/ha): 100%; Post-emergence action against VIOTR in % ([22]; 20 g/ha): 100%
